Experimental findings from ChEMBL document CHEMBL3352532, “Microwave assisted synthesis and docking study of N-(2-oxo-2-(4-oxo-2-substituted thiazolidin-3ylamino)ethyl)benzamide derivatives as anticonvulsant agents” (Bioorg Med Chem Lett, 2014) are described below.

Calls of active or inactive are those of the source. No cut-off for these calls is given here.

Data set [1] deals with Mus musculus. Description: Hepatotoxicity in Swiss CF1 mouse assessed as induction of necrosis and fatty changes at 300 mg/kg, ip. It is filed as toxicity, organism-based. The arrangement: dose 300 mg/kg, route intraperitoneal. Conditions: in vivo.
The subject of data set [2] is Mus musculus. Briefly: Anticonvulsant activity in ip dosed Swiss CF1 mouse measured after 4 hrs by MES test. It is filed as functional.
In data set [3] the test system is Mus musculus. Description: Anticonvulsant activity in ip dosed Swiss CF1 mouse measured after 0.5 hrs by MES test. It is filed as functional.
The test system of data set [4] is Mus musculus. Description: Behavioral activity in Swiss CF1 mouse assessed as activity score at 100 mg/kg, ip measured after 0.5 hrs post dose by actophotometry. In kind it is organism-based. Also noted: dose 100 mg/kg, route intraperitoneal. The note with it: in vivo.
Data set [5] can be described thus: Neurotoxicity in ip dosed Swiss CF1 mouse assessed as induction of motor impairment measured after 0.5 hrs by rotorod test. It is filed as toxicity, organism-based. The note with it: in vivo, read-out: MTD50. (Falling from the rotarod earlier than controls is read as motor impairment.)
Data set [6] in a line: Lipophilicity, log P of the compound by UV spectroscopy. The note with it: octanol/water. It is filed as physicochemical.
The nature of data set [7]: Neurotoxicity in ip dosed Swiss CF1 mouse assessed as induction of motor impairment measured after 4 hrs by rotorod test. In kind it is toxicity, organism-based. Conditions: in vivo, read-out: MTD50.
The test system of data set [8] is Mus musculus. Description: Anticonvulsant activity in ip dosed Swiss CF1 mouse measured after 4 hrs by scPTZ test. In kind it is functional.
The subject of data set [9] is Mus musculus. Briefly: Anticonvulsant activity in ip dosed Swiss CF1 mouse measured after 0.5 hrs by scPTZ test. It is filed as functional.
The test system of data set [10] is Mus musculus. Description: Behavioral activity in Swiss CF1 mouse assessed as activity score at 100 mg/kg, ip measured after 4 hrs post dose by actophotometry. In kind it is organism-based. Conditions: in vivo. Also noted: dose 100 mg/kg, route intraperitoneal.
Data set [11] relates to Mus musculus. Briefly: Hepatotoxicity in Swiss CF1 mouse assessed as induction of fatty changes and inflammations at 300 mg/kg, ip. In kind it is toxicity, organism-based. The arrangement: dose 300 mg/kg, route intraperitoneal. The note with it: in vivo.
Data set [12] relates to Mus musculus. Briefly: Hepatotoxicity in Swiss CF1 mouse assessed as induction of inflammation and necrosis at 300 mg/kg, ip. Also noted: dose 300 mg/kg, route intraperitoneal. Conditions: in vivo. In kind it is toxicity, organism-based.

For `O=C1NC(=O)C(c2ccccc2)(c2ccccc2)N1` [PHENYTOIN], the Activity result in the data set on Mus musculus [1] is listed as “Toxic”. The MED50 in the data set on Mus musculus [2] and in the data set with Mus musculus [3] was 30 mg/kg each time.

In the case of `O=C(CNC(=O)c1ccccc1)NN1C(=O)CSC1c1ccccc1Cl` (stereo not given), the Activity is reported as 108.8 in the data set with Mus musculus [4] and 110.8 in the data set with Mus musculus [10]. The TD50 at 0.5 h in data set [5] came to 100 mg/kg. Besides, the log partition coefficient (logP) (as a rule, a log measure of how a compound divides between an organic and an aqueous phase) in [6] worked out at 2.3. Moreover, the figures for the MED50 with Mus musculus [2] and with Mus musculus [3] were 300 mg/kg and 100 mg/kg, respectively. Also, the TD50 at 4 h in data set [7] amounted to 100 mg/kg. Moreover, the MED50 result in the data set on Mus musculus [8] and in the data set with Mus musculus [9] was “inactive” each time.

Consider `CCCC(CCC)C(=O)[O-].[Na+]` [VALPROATE SODIUM], for which the MED50 entry in the data set on Mus musculus [8] is “inactive”. The molecule also returned an MED50 in the data set on Mus musculus [9] of 300 mg/kg.

With `COc1ccc(C2SCC(=O)N2NC(=O)CNC(=O)c2ccccc2)cc1` (stereo not given), the Activity is on record as 77.8 in the data set on Mus musculus [4] and 80.2 with Mus musculus [10]. In addition, the TD50 at 0.5 h in data set [5] is 300 mg/kg. Also, in data set [6], the log partition coefficient (logP) worked out at 1.85. The MED50 entry with Mus musculus [2] and in the data set on Mus musculus [8] was “inactive” each time. In [7], the TD50 at 4 h is 300 mg/kg. The MED50 in the data set with Mus musculus [9] is 100 mg/kg; in the data set on Mus musculus [3], 300 mg/kg.

With `O=C(CNC(=O)c1ccccc1)NN1C(=O)CSC1c1ccc(Cl)cc1` (stereo not given), the Activity in the data set with Mus musculus [4] is 103.6; with Mus musculus [10], 71.6. The molecule further showed a logP in [6] of 2.87. For the same molecule, the figures for the MED50 in the data set with Mus musculus [2], in the data set with Mus musculus [9] and in the data set on Mus musculus [3] were 100 mg/kg, 300 mg/kg and 100 mg/kg, respectively. In the data set with Mus musculus [8], the MED50 entry was “inactive”.

With `COc1ccc(C2SCC(=O)N2NC(=O)CNC(=O)c2ccccc2)cc1OC` (stereo not given), the results for the Activity in the data set with Mus musculus [4], with Mus musculus [11] and in the data set with Mus musculus [10] were 42, “Non-toxic” and 88.6, respectively. In data set [6], this molecule came in with a logP of 1.85. Also, the MED50 in the data set with Mus musculus [2] amounted to 30 mg/kg; with Mus musculus [8], 300 mg/kg; in the data set with Mus musculus [9], 100 mg/kg; in the data set with Mus musculus [3], 30 mg/kg.

Turning to `O=C(CNC(=O)c1ccccc1)NN1C(=O)CSC1c1ccccc1` (stereo not given), the Activity is 74 in the data set with Mus musculus [4], 94.8 with Mus musculus [10] and “Toxic” in the data set with Mus musculus [12]. Further, the TD50 at 0.5 h in data set [5] came to 100 mg/kg. The molecule further displayed a logP in data set [6] of 1.95. In addition, the MED50 in the data set with Mus musculus [2] was 300 mg/kg; in the data set on Mus musculus [8] it was 300 mg/kg; in the data set with Mus musculus [9], 100 mg/kg; in the data set with Mus musculus [3] it was 300 mg/kg. Further, the TD50 at 4 h in data set [7] worked out at 300 mg/kg.

Take `O=C(CNC(=O)c1ccccc1)NN1C(=O)CSC1c1c[nH]c2ccccc12` (stereo not given): the Activity is reported as 102.6 in the data set on Mus musculus [4] and 120 in the data set on Mus musculus [10]. In data set [5], the TD50 at 0.5 h is 300 mg/kg. This molecule yielded a lipophilicity (logP) in data set [6] of 1.7. The MED50 entry with Mus musculus [2], in the data set with Mus musculus [8] and in the data set on Mus musculus [9] was “inactive” throughout. For the same molecule, the TD50 at 4 h in [7] stood at 100 mg/kg. The molecule also came in with an MED50 in the data set with Mus musculus [3] of 300 mg/kg.

With `O=C(CNC(=O)c1ccccc1)NN1C(=O)CSC1c1cccc(Cl)c1` (stereo not given), the Activity in the data set on Mus musculus [4] worked out at 102.6; with Mus musculus [10], 108.2. For the same molecule, in [5], the TD50 at 0.5 h worked out at 30 mg/kg. Moreover, in data set [6], the logP was found to be 2.8. The MED50 entry with Mus musculus [2], in the data set with Mus musculus [8] and in the data set on Mus musculus [9] was “inactive” in each case. Moreover, in data set [7], the TD50 at 4 h worked out at 30 mg/kg. In the data set on Mus musculus [3], the MED50 came to 300 mg/kg.

Turning to `O=C(CNC(=O)c1ccccc1)NN1C(=O)CSC1c1ccc(O)cc1` (stereo not given), the Activity in the data set on Mus musculus [4] is on record as 38.2; in the data set on Mus musculus [10], 99.6. The log partition coefficient (logP) in data set [6] was 1.75. Further, the MED50 in the data set on Mus musculus [2] was found to be 100 mg/kg; in the data set on Mus musculus [3], 30 mg/kg. The MED50 result in the data set with Mus musculus [8] and with Mus musculus [9] was “inactive” in each case.

Turning to `O=C(CNC(=O)c1ccccc1)NN1C(=O)CSC1c1ccc(F)cc1` (stereo not given), the values for the Activity in the data set on Mus musculus [4] and with Mus musculus [10] were 64.6 and 94, respectively. This molecule returned a lipophilicity (logP) in [6] of 2.1. Moreover, the MED50 entry in the data set on Mus musculus [2], in the data set with Mus musculus [8], in the data set on Mus musculus [9] and in the data set on Mus musculus [3] was “inactive” in each case. The TD50 at 4 h in data set [7] was found to be 300 mg/kg.

Regarding `COc1cc(C2SCC(=O)N2NC(=O)CNC(=O)c2ccccc2)cc(OC)c1OC` (stereo not given), the Activity was 92.6 with Mus musculus [4] and 101 with Mus musculus [10]. Moreover, the TD50 at 0.5 h in data set [5] is 100 mg/kg. This molecule also displayed a logP in data set [6] of 1.65. Besides, the MED50 in the data set on Mus musculus [2] turned out to be 300 mg/kg; in the data set on Mus musculus [8], 300 mg/kg; in the data set on Mus musculus [9], 300 mg/kg; in the data set on Mus musculus [3], 100 mg/kg. Further, the TD50 at 4 h in data set [7] stood at 100 mg/kg.
